In patent publication US6875451B2, “Compositions and methods for the treatment of primary and metastatic neoplastic diseases using arsenic compounds” (PolaRx Biopharmaceuticals Inc., priority 1997, dated 2005):

Experiments:
Assay type in all cases: cell-based
[1] = tested on: COLO 205; assay: SRB growth assay, 2 days exposure, colon cancer
Method: (§1) Arsenic trioxide (1 mg/ml, 10 mg/ampoule, manufactured by Taylor Pharmaceuticals, Decatur, Ill.) was tested at five concentrations each at 10-fold dilutions, i.e., 10^−5, 10^−6, 10^−7, 10^−8 and 10^−9 μg/ml.
(§2) The in vitro tests were performed by incubating the test cells in the presence of the indicated concentration of arsenic trioxide under standard culture conditions for a designated period of time, which is followed by a sulforhodamine B (SRB) protein assay to estimate cell viability or growth. The cell lines are organized into subpanels according to the origin of the cell lines, e.g., leukemia, breast cancer, etc. A description of the cell lines and method of testing is described in Monk et al. (1997, Anticancer Drug Des. 12:533-41) and Weinstein et al., (1997, Science 275:343-9), which are incorporated herein in their entirety.
(§3) The measurement of an effect is expressed in Percentage Growth (PG). The measured effect of the compound on a cell line is calculated according to one or the other of the following two expressions: If (Mean ODtest−Mean ODzero)≧0. then PG=100×(Mean ODtest−Mean ODzero)/(Mean ODctrl−Mean ODzero) If (Mean ODtest−Mean ODzero)<0. then PG=100×(Mean ODtest−Mean ODzero)/(Mean ODzero where: • Mean ODzero=the average of optical density measurements of SRB-derived color just before exposure of cells to the test compounds; • Mean ODtest=the average of optical density measurements of SRB-derived color after exposure of cells to the test compound for a designated period of time; and • Mean ODctrl=the average of optical density measurements of SRB-derived color after with no exposure of cells to the test compound for a designated period of time
(§4) The first two columns describe the subpanel (e.g., leukemia) and cell line (e.g., CCRF-CEM) involved. The next two columns list the Mean ODzero and Mean ODctrl; the next five columns list the Mean ODtest for each of five different concentrations. Each concentration is expressed as the log10 (molar or μg/ml). The next five columns list the calculated PGs for each concentration. The response parameters GI50, TGI and LC50 are interpolated values representing the concentrations at which the PG is +50, 0, and −50, respectively. Sometimes these response parameters cannot be obtained by interpolation. If, for instance, all of the PGs in a given row exceed +50, then none of the three parameters can be obtained by interpolation. In such a case, the value given for each response parameter is the highest concentration tested and is preceded by a “>” sign. This practice is extended similarly to the other possible situations where a response parameter cannot be obtained by interpolation.
(§5) In the first set, the cells from 56 different cancer cell lines were exposed to five concentrations of arsenic trioxide continuously for two days prior to performing the SRB assay. In the second set, the cells from 50 different cell lines (a subset of the first 56 cell lines, plus the renal cancer cell line 786-0) were exposed continuously for six days prior to the SRB assay.

[2] = tested on: HCT-116; assay: SRB growth assay, 2 days exposure, colon cancer
Method: as §1, §2, §3, §4, §5

[3] = tested on: KM12; assay: SRB growth assay, 2 days exposure, colon cancer
Method: as §1, §2, §3, §4, §5

[4] = tested on: HT29; assay: SRB growth assay, 2 days exposure, colon cancer
Method: as §1, §2, §3, §4, §5

[5] = tested on: SW-620; assay: SRB growth assay, 2 days exposure, colon cancer
Method: as §1, §2, §3, §4, §5

[6] = tested on: HCT-15; assay: SRB growth assay, 2 days exposure, colon cancer
Method: as §1, §2, §3, §4, §5

[7] = tested on: HOP-92; assay: SRB growth assay, 6 days exposure, non-small cell lung cancer; settings: HOP-92, 6 days
Method: as §1, §2, §3, §4, §5

[8] = tested on: NCI-H226; assay: as above; settings: NCI-H226, 6 days
Method: as §1, §2, §3, §4, §5

[9] = tested on: EKVX; assay: as above
Method: as §1, §2, §3, §4, §5

[10] = tested on: HOP-62; assay: as above; settings: HOP-62, 6 days
Method: as §1, §2, §3, §4, §5

[11] = read-out: LC50 (the source's name)

arsenic trioxide
TGI [1]: >0.0126 ng/mL | Percent Growth ([1]; log10 conc −4.9): 57% | Percent Growth ([1]; log10 conc −5.9): 104% | Percent Growth ([1]; log10 conc −6.9): 117% | Percent Growth ([1]; log10 conc −7.9): 102% | Percent Growth ([1]; log10 conc −8.9): 103% | TGI [2]: >0.0126 ng/mL | Percent Growth ([2]; log10 conc −4.9): 30% | Percent Growth ([2]; log10 conc −5.9): 86% | Percent Growth ([2]; log10 conc −6.9): 93% | Percent Growth ([2]; log10 conc −7.9): 93% | Percent Growth ([2]; log10 conc −8.9): 95% | TGI [3]: >0.0126 ng/mL | Percent Growth ([3]; log10 conc −4.9): 68% | Percent Growth ([3]; log10 conc −5.9): 99% | Percent Growth ([3]; log10 conc −6.9): 106% | Percent Growth ([3]; log10 conc −7.9): 98% | Percent Growth ([3]; log10 conc −8.9): 101% | TGI [4]: >0.0126 ng/mL | Percent Growth ([4]; log10 conc −4.9): 15% | Percent Growth ([4]; log10 conc −5.9): 80% | Percent Growth ([4]; log10 conc −6.9): 100% | Percent Growth ([4]; log10 conc −7.9): 104% | Percent Growth ([4]; log10 conc −8.9): 112% | TGI [5]: >0.0126 ng/mL | Percent Growth ([5]; log10 conc −4.9): 16% | Percent Growth ([5]; log10 conc −5.9): 85% | Percent Growth ([5]; log10 conc −6.9): 96% | Percent Growth ([5]; log10 conc −7.9): 98% | Percent Growth ([5]; log10 conc −8.9): 102% | TGI [6]: >0.0126 ng/mL | Percent Growth ([6]; log10 conc −4.9): 20% | Percent Growth ([6]; log10 conc −5.9): 93% | Percent Growth ([6]; log10 conc −6.9): 104% | Percent Growth ([6]; log10 conc −7.9): 100% | Percent Growth ([6]; log10 conc −8.9): 113% | Mean Optical Densities ([7]; Log 10 Concentration −4.9): 0.079 | Percent Growth ([7]; Log 10 Concentration −4.9): −31% | Mean Optical Densities ([7]; Log 10 Concentration −5.9): 1.229 | Percent Growth ([7]; Log 10 Concentration −5.9): 95% | Mean Optical Densities ([7]; Log 10 Concentration −6.9): 1.319 | Percent Growth ([7]; Log 10 Concentration −6.9): 102% | Mean Optical Densities ([7]; Log 10 Concentration −7.9): 1.834 | Percent Growth ([7]; Log 10 Concentration −7.9): 146% | Mean Optical Densities ([7]; Log 10 Concentration −8.9): 1.455 | Percent Growth ([7]; Log 10 Concentration −8.9): 114% | CC50 [7, 11]: > 12.6 µM | Mean Optical Densities ([8]; Log 10 Concentration −4.9): 0.164 | Percent Growth ([8]; Log 10 Concentration −4.9): 17% | Mean Optical Densities ([8]; Log 10 Concentration −5.9): 0.348 | Percent Growth ([8]; Log 10 Concentration −5.9): 63% | Mean Optical Densities ([8]; Log 10 Concentration −6.9): 0.489 | Percent Growth ([8]; Log 10 Concentration −6.9): 98% | Mean Optical Densities ([8]; Log 10 Concentration −7.9): 0.458 | Percent Growth ([8]; Log 10 Concentration −7.9): 90% | Mean Optical Densities ([8]; Log 10 Concentration −8.9): 0.504 | Percent Growth ([8]; Log 10 Concentration −8.9): 101% | CC50 [8, 11]: > 12.6 µM | TGI [9]: 4.22E−06 | Mean Optical Densities ([9]; Log 10 Concentration −4.9): 0.014 | Percent Growth ([9]; Log 10 Concentration −4.9): −53% | Mean Optical Densities ([9]; Log 10 Concentration −5.9): 0.414 | Percent Growth ([9]; Log 10 Concentration −5.9): 59% | Mean Optical Densities ([9]; Log 10 Concentration −6.9): 0.628 | Percent Growth ([9]; Log 10 Concentration −6.9): 92% | Mean Optical Densities ([9]; Log 10 Concentration −7.9): 0.601 | Percent Growth ([9]; Log 10 Concentration −7.9): 88% | Mean Optical Densities ([9]; Log 10 Concentration −8.9): 0.573 | Percent Growth ([9]; Log 10 Concentration −8.9): 83% | Mean Optical Densities ([10]; Log 10 Concentration −4.9): 0.014 | Percent Growth ([10]; Log 10 Concentration −4.9): −77% | Mean Optical Densities ([10]; Log 10 Concentration −5.9): 0.451 | Percent Growth ([10]; Log 10 Concentration −5.9): 40% | Mean Optical Densities ([10]; Log 10 Concentration −6.9): 1.019 | Percent Growth ([10]; Log 10 Concentration −6.9): 99% | Mean Optical Densities ([10]; Log 10 Concentration −7.9): 0.997 | Percent Growth ([10]; Log 10 Concentration −7.9): 97% | Mean Optical Densities ([10]; Log 10 Concentration −8.9): 1.076 | Percent Growth ([10]; Log 10 Concentration −8.9): 105%
